Results published in patent US10787448B2, “Indolizino [3,2-C] quinoline-based fluorescent probe” (SEOUL NATIONAL UNIVERSITY R & DB FOUNDATION, priority 2015, dated 2020).
Values joined by “and” are separate entries in the source; they are usually repeats but may differ in a detail not shown here. Equal values may be shown once.

Experiments:
[1] = system: HeLa cells; assay: Cell permeability: fluorescence imaging and live cell confocal imaging; assay type: cell-based; conditions: for intracellular organelles in which fluorescence is detected: HeLa cells; for co-localization with LysoTracker: live-cell confocal imaging, IQ 56 green, IQ 57 blue wavelength; for detection with yellow and red wavelength filters: live HeLa cells, ex 514 nm, em 519 nm and ex 561 nm, em 566 nm
Protocol: HeLa cells were seeded in a 96-well plate and incubated for 24 hours. The cells were treated with the indolizino[3,2-c]quinoline compounds, and incubated at 37° C. under a 5% CO2 condition for 30 minutes. After removal of the medium, the cells were washed with 1×DPBS. The washed cells were fixed with 4% formaldehyde at room temperature for 10 minutes, and washed with 1×DPBS. A cell image was screened using an Operetta HTS imaging system (PerkinElmer).
After HeLa cells were seeded to account for 70 to 80% of the area of a confocal dish (SPL life science) and overnight cultured, the indolizino[3,2-c]quinoline compounds (10 μM) prepared by mixing fresh DMEM after removal of the existing DMEM medium were dispensed, and the cells were incubated for 30 minutes to 1 hour at 37° C. Afterward, if needed, LysoTracker (50 nM) was mixed with DMEM to remove the existing medium and then dispensed to the cells, and the cells were incubated for 30 minutes at 37° C. After incubation, without washing, the cells were examined by a confocal laser microscope (Leica TCS SP8 SMD, Leica, Mannheim, Germany). However, when co-stained with a LysoTracker, the cells were washed with DPBS twice before the microscopy. […]

[2] = Analysis of optical characteristics (absorption, fluorescence emission, quantum yield) in solvents; assay type: physicochemical; conditions: for Fluorescence Emission Intensity / Peak emission wavelength λmax em(nm) / Relative fluorescence Emission Intensitynorm: H2O at 2 μM; for Peak emission wavelength λmax em(nm): excited at the longest absorption maxima; for Relative fluorescence Emission Intensitynorm: normalized fluorescence intensity; for Fluorescence quantum yield (Φ): Rhodamine 6G as a standard (Φ = 0.86 in water)
Protocol: Fluorescence emission spectra were obtained at 20° C. using a JASCO FP-6500 spectrofluorometer, a 10 mM stock solution prepared by dissolving an indolizino[3,2-c]quinoline compound in DMSO was diluted in a solvent. […] Absorption spectra were recorded at room temperature using a Perkin Elmer Lamda 20 UV/VIS spectrometer. […]
Further, the compounds (excluding Entry #51-57, etc.) of Formula 1 were subjected to spectrum analyses in various solvents, and the results are shown in Tables 6 and 7, and FIGS. 5C and 5D.

Compound | quantum yield (Φ) ([2]; DW, standard Rhodamine 6G) | quantum yield (Φ) ([2]; EtOH, standard Coumarin 153) | Fluorescence Emission Intensity [2] | Peak emission wavelength λmax em(nm) [2] [nm] | Relative fluorescence Emission Intensitynorm [2] | further results
COc1ccc(-c2nc3ccccc3c3cc4ccccn4c23)cc1CN1CCOCC1 [IQ 56, 4-(5-(indolizino[3,2-c]quinolin-6-yl)-2-methoxybenzyl)morpholine] |  |  |  |  |  | intracellular organelles in which fluorescence is detected [1]: intensively distributed in the lysosomal area; co-localization with LysoTracker [1]: co-localized with the commercially available marker LysoTracker
CCOC(=O)c1c2c3ccccc3nc(-c3ccc(OC)c(CN4CCOCC4)c3)c2n2ccccc12 [IQ 57, ethyl 6-(4-methoxy-3-(morpholinomethyl)phenyl)indolizino[3,2-c]quinoline-12-carboxylate] |  |  |  |  |  | intracellular organelles in which fluorescence is detected [1]: intensively distributed in the lysosomal area; co-localization with LysoTracker [1]: co-localized with the commercially available marker LysoTracker
COc1ccc(-c2ccn3c(c2)cc2c4ccccc4nc(-c4ccc(OC)cc4)c23)cc1 [IQ-B26, 6,10-bis(4-methoxyphenyl)indolizino[3,2-c]quinoline] |  |  |  |  |  | detection with yellow and red wavelength filters [1]: detected
COc1ccc(-c2nc3ccccc3c3cc4cc(-c5ccc(/C=C/C=O)cc5)ccn4c23)cc1 [IQ-B31, (E)-3-(4-(6-(4-methoxyphenyl)indolizino[3,2-c]quinolin-10-yl)phenyl)acrylaldehyde] |  |  |  |  |  | λex(nm) ([2]; Table 7): 440 nm; detection with yellow and red wavelength filters [1]: detected
Cc1ccc(-c2nc3ccccc3c3cc4c(C)cccn4c23)cc1 [compound 15] | 0.024 | 0.654 | 9.4 | 535.5 | 0.04 | 
COc1cc(OC)cc(-c2nc3ccccc3c3cc4c(C)cccn4c23)c1 [compound 16] | 0.014 | 0.672 | 11.7 | 535 | 0.05 | 
COC(=O)c1c2c3ccccc3nc(-c3cccc4ccccc34)c2n2ccccc12 [compound 20] | 0.367 | 0.468 | 143.5 | 493 | 0.62 | 
COc1ccc(-c2nc3ccccc3c3cc4ccc(Br)cn4c23)cc1 [compound 22] | 0.070 | 0.440 | 89.5 | 512 | 0.38 | 
Cc1ccc(-c2nc3ccccc3c3cc4ccc(Br)cn4c23)cc1 [compound 23] | 0.065 | 0.106 | 82.4 | 518 | 0.35 | 
COc1ccc(-c2nc3ccccc3c3cc4ccc(Br)cn4c23)cc1OC [compound 24] | 0.030 | 0.063 | 75.1 | 513 | 0.32 | 
Brc1ccc2cc3c4ccccc4nc(-c4ccco4)c3n2c1 [compound 25] | 0.009 | 0.031 | 13.4 | 505.5 | 0.06 | 
CCOC(=O)c1c2c3ccccc3nc(-c3ccc([N+](=O)[O-])cc3)c2n2ccccc12 [compound 26] | 0.000 | 0.000 |  |  | 0.00 | Maximum absorption wavelength λmax abs(nm) [2]: 384 nm
CCOC(=O)c1c2c3ccccc3nc(-c3cccc(Cl)c3)c2n2ccccc12 [compound 27] | 0.073 | 0.318 | 98.9 | 474 | 0.42 | 
CCOC(=O)c1c2c3ccccc3nc(-c3cccc(F)c3)c2n2ccccc12 [compound 28] |  |  | 211.7 | 476 | 0.91 | Absorption coefficient (cm^−1M^−1) [2]: 10780 cm^−1M^−1; Absorption wavelength λex(nm) [2]: 369 nm; Emission wavelength λem(nm) [2]: 476 nm; λem (nm) ([2]; DMF): 470 nm; λem (nm) ([2]; DMSO): 472.5 nm; λem (nm) ([2]; EtOH): 449.5 nm; λem (nm) ([2]; EtOH:CHCl3 = 1:5): 450 nm; λem (nm) ([2]; H2O): 476 nm; λem (nm) ([2]; MC): 451.5 nm; Fluorescence quantum yield (Φ) [2]: 0.061
CCOC(=O)c1c2c3ccccc3nc(-c3cccc(OC)c3)c2n2ccccc12 [compound 29] | 0.120 | 0.365 | 186.2 | 482 | 0.80 | 
CCOC(=O)c1c2c3ccccc3nc(-c3ccc(OC)c(OC)c3)c2n2ccccc12 [compound 30] |  |  | 210.7 | 480.5 | 0.90 | Absorption coefficient (cm^−1M^−1) [2]: 10580 cm^−1M^−1; Absorption wavelength λex(nm) [2]: 369 nm; Emission wavelength λem(nm) [2]: 481 nm; λem (nm) ([2]; DMF): 450 nm; λem (nm) ([2]; DMSO): 452.5 nm; λem (nm) ([2]; EtOH): 444 nm; λem (nm) ([2]; EtOH:CHCl3 = 1:5): 447.5 nm; λem (nm) ([2]; H2O): 478.5 nm; λem (nm) ([2]; MC): 448 nm; Fluorescence quantum yield (Φ) [2]: 0.084
Cc1cccn2c1cc1c3ccccc3nc(-c3cccc4ccccc34)c12 [compound 33] | 0.082 | 0.277 |  |  |  | 
Cc1ccc2cc3c4ccccc4nc(-c4cccc5ccccc45)c3n2c1 [compound 35] | 0.073 | 0.365 |  |  |  | 
COc1ccc(-c2nc3ccccc3c3c(C#N)c4ccccn4c23)cc1 [compound 39] | 0.026 | 0.492 |  |  |  | 
COC(=O)c1c2c3ccccc3nc(-c3ccccn3)c2n2ccccc12 [compound 43] | 0.014 | 0.275 |  |  |  | 
COc1ccc(-c2nc3ccccc3c3c(-c4ccc(C(F)(F)F)cc4)c4ccccn4c23)cc1 [compound 47] | 0.050 | 0.597 |  |  |  | 
COc1ccc(-c2nc3ccccc3c3c(-c4ccc(C(C)=O)cc4)c4ccccn4c23)cc1 [compound 48] | 0.105 | 0.050 |  |  |  | 
COc1ccc(-c2nc3ccccc3c3c(Br)c4ccccn4c23)cc1 [compound 49] | 0.085 | 0.195 |  |  |  | 
COc1ccc(-c2nc3ccccc3c3c(I)c4ccccn4c23)cc1 [compound 50] | 0.014 | 0.037 |  |  |  | 
CCOC(=O)c1c2c3ccccc3nc(-c3ccc(OC)cc3)c2n2ccccc12 [compound 51] |  |  |  |  |  | λex(nm) ([2]; Table 6): 403 nm
Cc1cccn2c1cc1c3ccccc3nc(-c3cccs3)c12 [compound 52] |  |  |  |  |  | λex(nm) ([2]; Table 6): 399 nm
Cc1cccn2c1cc1c3ccccc3nc(-c3ccc(Cl)o3)c12 [compound 53] |  |  |  |  |  | λex(nm) ([2]; Table 6): 422 nm
C#Cc1c2c3ccccc3nc(-c3ccc(OC)cc3)c2n2ccccc12 [compound 55] |  |  |  |  |  | λex(nm) ([2]; Table 6): 413 nm
COc1ccc(-c2nc3ccccc3c3cc4ccccn4c23)cc1CN1CCOCC1 [compound 56] |  |  |  |  |  | λex(nm) ([2]; Table 6): 450 nm and 422 nm
CCOC(=O)c1c2c3ccccc3nc(-c3ccc(OC)c(CN4CCOCC4)c3)c2n2ccccc12 [compound 57] |  |  |  |  |  | λex(nm) ([2]; Table 6): 401 nm
